Measurements as given in ChEMBL document CHEMBL1671859, “bla(IMP-4) in different genetic contexts in Enterobacteriaceae isolates from Australia” (2008).

What was measured:
Assay type in all cases: functional
[1] = system: Klebsiella pneumoniae; experiment: Antibacterial activity against Klebsiella pneumoniae Kp1239 transconjugant harboring IncL/M plasmid and blaIMP-4-qacG2-aacA4-catB3 array by Etest method
[2] = system: Klebsiella pneumoniae; experiment: Antibacterial activity against Klebsiella pneumoniae Kp2730 transconjugant harboring IncL/M plasmid and blaIMP-4-qacG2-aacA4-catB3 and dfrA12-orfF-aadA2 arrays by Etest method
[3] = system: Citrobacter amalonaticus; experiment: Antibacterial activity against Citrobacter amalonaticus Ca3927 transconjugant harboring IncL/M plasmid and blaIMP-4-qacG2-aacA4-catB3 array by Etest method
[4] = system: Enterobacter cloacae; experiment: Antibacterial activity against Enterobacter cloacae El1573 transconjugant harboring IncL/M plasmid and blaIMP-4-qacG2-aacA4-catB3 array by Etest method
[5] = system: Citrobacter amalonaticus; experiment: Antibacterial activity against Citrobacter amalonaticus Ca38009 transconjugant harboring IncL/M plasmid and blaIMP-4-qacG2-aacA4-catB3 array by Etest method
[6] = system: Klebsiella pneumoniae; experiment: Antibacterial activity against Klebsiella pneumoniae Kp38045 transconjugant harboring IncL/M plasmid and blaIMP-4-qacG2-aacA4-catB3 array by Etest method
[7] = system: Escherichia coli; experiment: Antibacterial activity against Escherichia coli Ec9381 transconjugant harboring IncL/M plasmid and blaIMP-4-qacG2-aacA4-catB3 array by Etest method
[8] = system: Morganella morganii; experiment: Antibacterial activity against Morganella morganii Mm1229 transconjugant harboring IncL/M plasmid and blaIMP-4-qacG2-aacA4-catB3 array by Etest method
[9] = system: Enterobacter cloacae; experiment: Antibacterial activity against Enterobacter cloacae El3799 transconjugant harboring IncL/M plasmid and blaIMP-4-qacG2-aacA4-catB3 array by Etest method
[10] = system: Klebsiella oxytoca; experiment: Antibacterial activity against Klebsiella oxytoca Ko0426 transconjugant harboring IncL/M plasmid and blaIMP-4-qacG2-aacA4-catB3 array by Etest method
[11] = system: Klebsiella oxytoca; experiment: Antibacterial activity against Klebsiella oxytoca Ko1156 transconjugant harboring IncL/M plasmid and blaIMP-4-qacG2-aacA4-catB3 array by Etest method
[12] = system: Escherichia coli; experiment: Antibacterial activity against Escherichia coli Ec158 transconjugant harboring IncA/C plasmid and blaIMP-4-qacG2-aacA4-catB3 array by Etest method
[13] = system: Citrobacter koseri; experiment: Antibacterial activity against Citrobacter koseri Ck211 transconjugant harboring IncA/C plasmid and blaIMP-4-qacG2-aacA4-catB3 array by Etest method
[14] = system: Escherichia coli; experiment: Antibacterial activity against Escherichia coli Ec221 transconjugant harboring IncA/C plasmid and blaIMP-4-qacG2-aacA4-catB3 array by Etest method
[15] = system: Citrobacter youngae; experiment: Antibacterial activity against Citrobacter youngae CyB38 transconjugant harboring blaIMP-4-qacG2-aacA4-catB3 array by Etest method
[16] = system: Klebsiella pneumoniae; experiment: Antibacterial activity against Klebsiella pneumoniae isolate Kp1239 harboring IncL/M plasmid and blaIMP-4-qacG2-aacA4-catB3 array by Etest method
[17] = system: Klebsiella pneumoniae; experiment: Antibacterial activity against Klebsiella pneumoniae isolate Kp2730 harboring IncL/M plasmid and blaIMP-4-qacG2-aacA4-catB3 and dfrA12-orfF-aadA2 arrays by Etest method
[18] = system: Enterobacter cloacae; experiment: Antibacterial activity against Enterobacter cloacae isolate El3280 harboring IncL/M plasmid and blaIMP-4-qacG2-aacA4-catB3 array by Etest method
[19] = system: Citrobacter amalonaticus; experiment: Antibacterial activity against Citrobacter amalonaticus isolate Ca3927 harboring IncL/M plasmid and blaIMP-4-qacG2-aacA4-catB3 array by Etest method
[20] = system: Enterobacter cloacae; experiment: Antibacterial activity against Enterobacter cloacae isolate El1573 harboring IncL/M plasmid and blaIMP-4-qacG2-aacA4-catB3 array by Etest method
[21] = system: Serratia marcescens; experiment: Antibacterial activity against Serratia marcescens isolate Sm2723 harboring IncL/M plasmid and blaIMP-4-qacG2-aacA4-catB3 array by Etest method
[22] = system: Klebsiella pneumoniae; experiment: Antibacterial activity against Klebsiella pneumoniae isolate Kp7564 harboring IncL/M plasmid and blaIMP-4-qacG2-aacA4-catB3 array by Etest method
[23] = system: Citrobacter amalonaticus; experiment: Antibacterial activity against Citrobacter amalonaticus isolate Ca38009 harboring IncL/M plasmid and blaIMP-4-qacG2-aacA4-catB3 array by Etest method
[24] = system: Klebsiella pneumoniae; experiment: Antibacterial activity against Klebsiella pneumoniae isolate Kp38009 harboring IncL/M plasmid and blaIMP-4-qacG2-aacA4-catB3 array by Etest method
[25] = system: Morganella morganii; experiment: Antibacterial activity against Morganella morganii isolate Mm1229 harboring IncL/M plasmid and blaIMP-4-qacG2-aacA4-catB3 array by Etest method
[26] = system: Enterobacter cloacae; experiment: Antibacterial activity against Enterobacter cloacae isolate El3799 harboring IncL/M plasmid and blaIMP-4-qacG2-aacA4-catB3 array by Etest method
[27] = system: Klebsiella oxytoca; experiment: Antibacterial activity against Klebsiella oxytoca isolate Ko0426 harboring IncL/M plasmid and blaIMP-4-qacG2-aacA4-catB3 array by Etest method
[28] = system: Klebsiella oxytoca; experiment: Antibacterial activity against Klebsiella oxytoca isolate Ko1156 harboring IncL/M plasmid and blaIMP-4-qacG2-aacA4-catB3 array by Etest method
[29] = system: Citrobacter amalonaticus; experiment: Antibacterial activity against Citrobacter amalonaticus isolate Ca1614 harboring IncL/M plasmid and blaIMP-4-qacG2-aacA4-catB3 array by Etest method
[30] = system: Citrobacter freundii; experiment: Antibacterial activity against Citrobacter freundii isolate Cf1614 harboring IncL/M plasmid and blaIMP-4-qacG2-aacA4-catB3 array by Etest method
[31] = system: Morganella morganii; experiment: Antibacterial activity against Morganella morganii isolate Mm1614 harboring IncL/M plasmid and blaIMP-4-qacG2-aacA4-catB3 array by Etest method
[32] = system: Klebsiella pneumoniae; experiment: Antibacterial activity against Klebsiella pneumoniae isolate Kp149 harboring IncA/C plasmid and blaIMP-4-qacG2-aacA4-catB3 array by Etest method
[33] = system: Serratia marcescens; experiment: Antibacterial activity against Serratia marcescens isolate Sm201 harboring IncA/C plasmid and blaIMP-4-qacG2-aacA4-catB3 array by Etest method
[34] = system: Klebsiella pneumoniae; experiment: Antibacterial activity against Klebsiella pneumoniae isolate Kp211 harboring IncA/C plasmid and blaIMP-4-qacG2-aacA4-catB3 array by Etest method
[35] = system: Escherichia coli; experiment: Antibacterial activity against Escherichia coli isolate Ec211 harboring IncA/C plasmid and blaIMP-4-qacG2-aacA4-catB3 array by Etest method
[36] = system: Klebsiella pneumoniae; experiment: Antibacterial activity against Klebsiella pneumoniae isolate Kp266 harboring IncA/C plasmid and blaIMP-4-qacG2-aacA4-catB3 array by Etest method
[37] = system: Serratia marcescens; experiment: Antibacterial activity against Serratia marcescens isolate Sm211 harboring IncA/C plasmid and blaIMP-4-qacG2-aacA4-catB3 array by Etest method
[38] = system: Enterobacter cloacae; experiment: Antibacterial activity against Enterobacter cloacae isolate El216 harboring IncA/C plasmid and blaIMP-4-qacG2-aacA4-catB3 array by Etest method
[39] = system: Escherichia coli; experiment: Antibacterial activity against Escherichia coli isolate Ec221 harboring IncA/C plasmid and blaIMP-4-qacG2-aacA4-catB3 array by Etest method
[40] = system: Klebsiella oxytoca; experiment: Antibacterial activity against Klebsiella oxytoca isolate Ko238 harboring IncA/C plasmid and blaIMP-4-qacG2-aacA4-catB3 array by Etest method
[41] = system: Klebsiella pneumoniae; experiment: Antibacterial activity against Klebsiella pneumoniae isolate Kp204 harboring IncA/C plasmid and blaIMP-4-qacG2-aacA4-catB3 array by Etest method
[42] = system: Serratia marcescens; experiment: Antibacterial activity against Serratia marcescens isolate Sm265 harboring IncA/C plasmid and blaIMP-4-qacG2-aacA4-catB3 array by Etest method

Sequence: GENTAMICIN
- MIC [1]: > 8 µg/mL
- MIC [2]: > 8 µg/mL
- MIC [3]: > 8 µg/mL
- MIC [4]: > 8 µg/mL
- MIC [5]: > 8 µg/mL
- MIC [6]: > 8 µg/mL
- MIC [7]: > 8 µg/mL
- MIC [8]: > 8 µg/mL
- MIC [9]: > 8 µg/mL
- MIC [10]: > 8 µg/mL
- MIC [11]: > 8 µg/mL
- MIC [12]: > 8 µg/mL
- MIC [13]: > 8 µg/mL
- MIC [14]: < 2 µg/mL
- MIC [15]: < 2 µg/mL
- MIC [16]: > 8 µg/mL
- MIC [17]: > 8 µg/mL
- MIC [18]: > 8 µg/mL
- MIC [19]: > 8 µg/mL
- MIC [20]: > 8 µg/mL
- MIC [21]: > 8 µg/mL
- MIC [22]: > 8 µg/mL
- MIC [23]: > 8 µg/mL
- MIC [24]: > 8 µg/mL
- MIC [25]: > 8 µg/mL
- MIC [26]: > 8 µg/mL
- MIC [27]: > 8 µg/mL
- MIC [28]: > 8 µg/mL
- MIC [29]: > 8 µg/mL
- MIC [30]: > 8 µg/mL
- MIC [31]: > 8 µg/mL
- MIC [32]: > 8 µg/mL
- MIC [33]: > 8 µg/mL
- MIC [34]: > 8 µg/mL
- MIC [35]: > 8 µg/mL
- MIC [36]: > 8 µg/mL
- MIC [37]: > 8 µg/mL
- MIC [38]: > 8 µg/mL
- MIC [39]: < 2 µg/mL
- MIC [40]: 4 µg/mL
- MIC [41]: < 2 µg/mL
- MIC [42]: 8 µg/mL
